Measured values taken from US20100234351A1, “FUSED NITROGEN-COMPRISING HETEROCYCLIC COMPOUND” (TAKEDA PHARMACEUTICAL COMPANY LIMITED, priority 2006, published 2010).
Structures can show the parent of a compound that is named as a salt.

Biological target: T1, HER2 intracellular domain (Homo sapiens, UniProt P04626)
T1 construct: made in house; host or cells: SF-21 insect cells infected with recombinant baculovirus BAC-HER2
Assay: Measurement of HER2 kinase inhibitory activity
Type: biochemical
Conditions: compound 1.0 μM, poly-Glu:Tyr (4:1) substrate, [γ-32P]ATP, read-out: Inhibitory rate (%) at 1.0 μM
Method: Human HER2 gene was cloned by RT-PCR using total RNA prepared from MCF7 cells as a template. The primer used for RT-PCR was prepared from base sequence (Genbank Accession No. M11730) information of HER2 gene, adding base sequence encoding DYKDDDD peptide and a restriction enzyme recognition sequence to a nucleotide sequence (2176-3918 of Genbank Accession No. M11730 as a base, and corresponding to 676-1255 amino acid of Genbank Accession No. NP_004439 as a protein) encoding the HER2 intracellular domain region, so that a DYKDDDD peptide tag would be attached to the N-terminus of the protein. The base sequence of the primer is shown in below.
The RT reaction was performed using Superscript First-Strand Synthesis System for RT-PCR (Invitrogen) and the PCR reaction was performed using KOD-plus kit (TOYOBO). The obtained PCR product was electrophoresed on agarose gel (1%), and the DNA fragment amplified by PCR was recovered from the gel, and then digested with restriction enzymes Sal I and Sph I. The DNA treated with the restriction enzymes was electrophoresed on agarose gel (1%), and the obtained DNA fragment was recovered and ligated to plasmid pFASTBAC1 (Invitrogen) digested with restriction enzymes Sal I and Sph I to give expression plasmid pFB-HER2. The base sequence of the inserted fragment was confirmed and found to be identical with the base sequence of HER2 intracellular domain (2176-3918 of Genbank Accession M11730). Furthermore, using BAC-TO-BAC Baculovirus Expression System (Invitrogen), recombinant baculovirus BAC-HER2 was prepared.
SF-21 cells were sown at 1×10^6 cells/mL to 1 L of Sf-900II SFM medium (Invitrogen) containing 10% fetal calf serum (trace), 50 mg/L gentamicin (Invitrogen) and 0.1% Pluronic F-68 (Invitrogen), and cultured with shaking in 2 L volume Erlenmeyer flask at 27° C., 100 rpm. After culturing for 24 hr, recombinant baculovirus BAC-HER2 (13.4 mL) was added thereto, and the cells were further cultured for 3 days. The culture medium was centrifuged at 2,000 rpm for 5 min to give virus-infected cells. The infected cells were washed with phosphate buffered saline (Invitrogen), centrifuged under the same conditions, and preserved at −80° C. The cryopreserved cells were thawed in ice and suspended in buffer A (50 mM Tris buffer (30 mL, pH 7.4) containing 20% glycerol, 0.15 M NaCl) supplemented with Complete Protease Inhibitor (Boehringer). The cells were ruptured 3 times with a Polytron homogenizer (Kinematica) at 20,000 rpm for 30 sec. The disrupt was clarified by centrifugation at 40,000 rpm for 30 min and filtered with a 0.45 μm filter. The filtrate was passed through a column packed with Anti-FLAG M2 Affinity Gel (4 mL, Sigma Aldrich CO.) at a flow rate of about 0.5 mL/min. The column was washed with buffer A, and eluted with buffer A containing 100 μg/mL of FLAG peptide. The eluate was concentrated with Vivaspin 20 (Vivascience) having a molecular weight cut off of 30K. The concentrate was purified by gel filtration using Hi-Load 16/60 Superdex 200pg (GE Healthcare Bioscience) equilibrated with buffer A. The fractions containing HER2 intracellular domain were collected and cryopreserved at −80° C.
HER2 kinase reaction was carried out using 96-well plate. As a buffer for Kinase reaction, a buffer of a composition of 50 mM Tris-HCl (pH 7.5), 5 mM MnCl2, 2 mM dithiothreitol and 0.01% Tween-20 was used. The compound of the present invention was dissolved in dimethyl sulfoxide (DMSO), and diluted with a buffer for kinase reaction so that the DMSO concentration would become 0.1% during kinase reaction. The compound solution (10 μL) was mixed with a buffer for kinase reaction (20 μL) containing the HER2 intracellular domain (0.625 μg/mL) obtained in Experimental Example 1B and a polypeptide substrate poly-Glu:Tyr (4:1) (12.5 μg/mL, Sigma Ltd.) and the mixture was stood for 5 min at room temperature. […]

T1 sequence (P04626 676-1255): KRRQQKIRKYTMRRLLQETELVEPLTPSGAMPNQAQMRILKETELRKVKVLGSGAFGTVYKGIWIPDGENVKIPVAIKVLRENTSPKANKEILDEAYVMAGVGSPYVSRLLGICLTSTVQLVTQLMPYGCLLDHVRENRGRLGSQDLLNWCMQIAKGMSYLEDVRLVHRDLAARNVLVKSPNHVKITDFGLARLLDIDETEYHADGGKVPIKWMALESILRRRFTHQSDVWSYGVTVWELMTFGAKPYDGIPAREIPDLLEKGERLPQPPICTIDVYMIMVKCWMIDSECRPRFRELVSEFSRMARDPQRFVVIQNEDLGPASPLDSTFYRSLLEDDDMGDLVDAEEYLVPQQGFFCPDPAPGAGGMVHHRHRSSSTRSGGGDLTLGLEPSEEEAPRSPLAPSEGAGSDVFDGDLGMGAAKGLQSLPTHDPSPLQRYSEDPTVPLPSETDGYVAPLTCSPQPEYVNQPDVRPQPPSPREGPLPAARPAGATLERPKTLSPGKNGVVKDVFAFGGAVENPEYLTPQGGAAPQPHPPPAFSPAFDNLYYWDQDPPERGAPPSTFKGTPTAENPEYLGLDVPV

Compound: CN(CCS(C)(=O)=O)CC1=Cc2c(ncnc2Nc2ccc(Oc3cccc(C(=O)NC(C)(C)C)c3)c(Cl)c2)NCC1 [Example 242, N-(tert-butyl)-3-(2-chloro-4-{[6-({methyl[2-(methylsulfonyl)ethyl]amino}methyl)-8,9-dihydro-7H-pyrimido[4,5-b]azepin-4-yl]amino}phenoxy)benzamide]
- inhibition at 1 µM: 99%

Compound: CC(C)(C)NC(=O)c1cccc(Oc2ccc(Nc3ncnc4c3C=C(/C=N/OCCO)CCN4)cc2Cl)c1 [Example 231, N-(tert-butyl)-3-{2-chloro-4-[(6-{[(2-hydroxyethoxy)imino]methyl}-8,9-dihydro-7H-pyrimido[4,5-b]azepin-4-yl)amino]phenoxy}benzamide]
- inhibition at 1 µM: 97%

Compound: CC(C)(C)OC(=O)N1CCC(Oc2ccc(Nc3ncnc4c3C=C(CO)CCN4)cc2Cl)CC1 [Example 146, tert-butyl 4-(2-chloro-4-{[6-(hydroxymethyl)-8,9-dihydro-7H-pyrimido[4,5-b]azepin-4-yl]amino}phenoxy)piperidine-1-carboxylate]
- inhibition at 1 µM: 92%

Compound: CC(C)(CS(=O)(=O)CCO)NC(=O)C1=Cc2c(ncnc2Nc2ccc(Oc3cccc(C(F)(F)F)c3)c(Cl)c2)NCC1 [Example 172, 4-({3-chloro-4-[3-(trifluoromethyl)phenoxy]phenyl}amino)-N-{2-[(2-hydroxyethyl)sulfonyl]-1,1-dimethylethyl}-8,9-dihydro-7H-pyrimido[4,5-b]azepine-6-carboxamide]
- inhibition at 1 µM: 95%

Compound: COC(=O)C1=Cc2c(ncnc2Nc2cnc(Oc3cccc(C(=O)NC(C)(C)C)c3)c(Cl)c2)NCC1 [Example 220, methyl 4-[(6-{3-[(tert-butylamino)carbonyl]phenoxy}-5-chloropyridin-3-yl)amino]-8,9-dihydro-7H-pyrimido[4,5-b]azepine-6-carboxylate]
- inhibition at 1 µM: 96%

Compound: CCOC(=O)/C=C/C1=Cc2c(ncnc2Nc2ccc(Oc3cccc(C(=O)NC(C)(C)C)c3)c(Cl)c2)NCC1 [Example 246, ethyl (2E)-3-{4-[(4-{3-[(tert-butylamino)carbonyl]phenoxy}-3-chlorophenyl)amino]-8,9-dihydro-7H-pyrimido[4,5-b]azepin-6-yl}acrylate]
- inhibition at 1 µM: 98%

Compound: CC(C)(CS(=O)(=O)CCO)NC(=O)C1=Cc2c(ncnc2Nc2ccc(Oc3cccc(S(=O)(=O)CC4CC4)c3)c(Cl)c2)NCC1 [Example 227, 4-[(3-chloro-4-{3-[(cyclopropylmethyl)sulfonyl]phenoxy}phenyl)amino]-N-{2-[(2-hydroxyethyl)sulfonyl]-1,1-dimethylethyl}-8,9-dihydro-7H-pyrimido[4,5-b]azepine-6-carboxamide]
- inhibition at 1 µM: 93%

Compound: CC(C)(C)NC(=O)c1cccc(Oc2ccc(Nc3ncnc4c3C=C(CNC(C)(C)CS(=O)(=O)CCO)CCN4)cc2Cl)c1 [Example 214, N-(tert-butyl)-3-[2-chloro-4-({6-[({2-[(2-hydroxyethyl)sulfonyl]-1,1-dimethylethyl}amino)methyl]-8,9-dihydro-7H-pyrimido[4,5-b]azepin-4-yl}amino)phenoxy]benzamide dihydrochloride]
- inhibition at 1 µM: 99%

Compound: COC(=O)C1=Cc2c(ncnc2Nc2ccc(Oc3cccc(C(=O)NC(C)(C)C)c3)c(Cl)c2)NCC1 [Example 135, methyl 4-[(4-{3-[(tert-butylamino)carbonyl]phenoxy}-3-chlorophenyl)amino]-8,9-dihydro-7H-pyrimido[4,5-b]azepine-6-carboxylate]
- inhibition at 1 µM: 97%

Compound: CC(C)(C)NC(=O)c1cccc(Oc2ccc(Nc3ncnc4c3C=C(CNCCF)CCN4)cc2Cl)c1 [Example 234, N-(tert-butyl)-3-{2-chloro-4-[(6-{[(2-fluoroethyl)amino]methyl}-8,9-dihydro-7H-pyrimido[4,5-b]azepin-4-yl)amino]phenoxy}benzamide]
- inhibition at 1 µM: 98%
